Structures can show the parent of a compound that is named as a salt.
Assays:
[1] = molecular target: T1, human V1a receptor (Homo sapiens, UniProt P37288); assay: Cellular in vitro assay for determining vasopressin receptor activity (V1a, aequorin luminescence); assay type: cell-based; settings: for IC50: CHO cell line transfected with the human V1a receptor, [Arg8]-vasopressin at EC50 concentration, read-out: IC50 hV1a; for ratio IC50 hV2/hV1a: selectivity ratio of IC50 hV2 to IC50 hV1a
T1 construct: expressed in transfected cells; host or cells: CHO K1 (ATCC), also stably transfected with a modified aequorin
Method: (§1) B-1. Cellular In Vitro Assay for Determining Vasopressin Receptor Activity
(§2) The identification of agonists and antagonists of the V1a and V2 vasopressin receptors from humans, rats and dogs as well as the quantification of the activity of the compounds of the invention is carried out using recombinant cell lines. These cell lines originally derive from a hamster's ovary epithelial cell (Chinese Hamster Ovary, CHO K1, ATCC: American Type Culture Collection, Manassas, Va. 20108, USA). The test cell lines constitutively express the human, rat or dog V1a or V2 receptors. In case of the Gαq-coupled V1a receptors, cells are also stably transfected with a modified form of the calcium-sensitive photoproteins aequorin (human and rat V1a) or obelin (dog V1a), which, after reconstitution with the cofactor coelenterazine, emit light when there are increases in free calcium concentrations [Rizzuto R, Simpson A W, Brini M, Pozzan T, Nature 358, 325-327 (1992); Illarionov B A, Bondar V S, Illarionova V A, Vysotski E S, Gene 153 (2), 273-274 (1995)]. The resulting vasopressin receptor cells react to stimulation of the recombinantly expressed V1a receptors by intracellular release of calcium ions, which can be quantified by the resulting photoprotein luminescence. The Gs-coupled V2 receptors are stably transfected into cell lines expressing the gene for firefly luciferase under control of a CRE-responsible promoter. Activation of V2 receptors induces the activation of the CRE-responsive promoter via cAMP increase, thereby inducing the expression of firefly luciferase. The light emitted by photoproteins of V1a cell lines as well as the light emitted by firefly luciferase of V2 cell lines corresponds to the activation or inhibition of the respective vasopressin receptor. The bioluminescence of the cell lines is detected using a suitable luminometer [Milligan G, Marshall F, Rees S, Trends in Pharmacological Sciences 17, 235-237 (1996)].
Vasopressin V1a receptor cell lines:
On the day before the assay, the cells are plated out in culture medium (DMEM/F12, 2% FCS, 2 mM glutamine, 10 mM HEPES, 5 μg/ml coelenterazine) in 384-well microtiter plates and kept in a cell incubator (96% humidity, 5% v/v CO2, 37° C.). On the day of the assay, test compounds in various concentrations are placed for 10 minutes in the wells of the microtiter plate before the agonist [Arg^8]-vasopressin at EC50 concentration is added. The resulting light signal is measured immediately in a luminometer.
(§3) Table 1A below lists individual IC50 values for the compounds of the invention (including racemic mixtures as well as separated enantiomers) that were obtained from cell lines transfected with the human V1a or V2 receptor: […]

[2] = molecular target: T2, human V2 receptor (Homo sapiens, UniProt P30518); assay: Cellular in vitro assay for determining vasopressin receptor activity (V2, CRE-luciferase); assay type: cell-based; settings: CHO cell line transfected with the human V2 receptor; [Arg8]-vasopressin at EC50 concentration; read-out: IC50 hV2
T2 construct: expressed in transfected cells; host or cells: CHO K1 (ATCC) expressing firefly luciferase under a CRE-responsive promoter
Method: as §1, §2
Vasopressin V2 receptor cell lines:
On the day before the assay, the cells are plated out in culture medium (DMEM/F12, 2% FCS, 2 mM glutamine, 10 mM HEPES) in 384-well microtiter plates and kept in a cell incubator (96% humidity, 5% v/v CO2, 37° C.). On the day of the assay, test compounds in various concentrations and the agonist [Arg^8]-vasopressin at EC50 concentration are added together to the wells, and plates are incubated for 3 hours in a cell incubator. Upon addition of the cell lysis reagent Triton™ and the substrate luciferin, luminescence of firefly luciferase is measured in a luminometer.
as §3

T1 sequence (P37288 whole entry): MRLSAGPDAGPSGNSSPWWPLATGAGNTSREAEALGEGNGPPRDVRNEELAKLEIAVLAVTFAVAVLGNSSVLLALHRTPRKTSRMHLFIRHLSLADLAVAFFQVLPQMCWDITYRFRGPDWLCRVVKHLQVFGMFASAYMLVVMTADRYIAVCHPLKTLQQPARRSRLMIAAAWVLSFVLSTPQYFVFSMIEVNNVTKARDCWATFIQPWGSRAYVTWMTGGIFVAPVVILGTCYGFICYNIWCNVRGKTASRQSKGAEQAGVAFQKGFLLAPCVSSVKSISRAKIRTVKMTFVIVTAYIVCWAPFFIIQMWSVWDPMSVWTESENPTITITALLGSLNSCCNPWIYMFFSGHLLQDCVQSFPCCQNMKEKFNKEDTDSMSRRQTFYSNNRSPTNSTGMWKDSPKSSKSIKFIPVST
T2 sequence (P30518 whole entry): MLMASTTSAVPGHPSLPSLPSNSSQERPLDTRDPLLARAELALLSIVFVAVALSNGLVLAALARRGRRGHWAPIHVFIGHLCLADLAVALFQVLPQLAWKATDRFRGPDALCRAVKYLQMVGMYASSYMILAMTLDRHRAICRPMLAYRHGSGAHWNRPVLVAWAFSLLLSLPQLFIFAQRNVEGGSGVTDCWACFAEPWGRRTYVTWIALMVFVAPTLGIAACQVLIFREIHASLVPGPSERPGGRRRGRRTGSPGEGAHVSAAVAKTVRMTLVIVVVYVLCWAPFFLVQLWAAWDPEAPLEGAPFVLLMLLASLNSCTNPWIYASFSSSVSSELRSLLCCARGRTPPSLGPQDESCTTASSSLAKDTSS

| Compound | IC50 [1] [nM] | ratio IC50 hV2/hV1a [1] | IC50 [2] [nM] |
| --- | --- | --- | --- |
| CC(N)c1nc(Cn2nc(-c3ccc(Cl)cc3)n(C[C@H](O)C(F)(F)F)c2=O)nn1-c1cccc(F)c1 (mixture of isomers) [Example 53, 2-({5-[1-Aminoethyl]-1-(3-fluorophenyl)-1H-1,2,4-triazol-3-yl}methyl)-5-(4-chlorophenyl)-4-[(2S)-3,3,3-trifluoro-2-hydroxypropyl]-2,4-dihydro-3H-1,2,4-triazol-3-one trifluoroacetate] | 18.3 | 0.3 | 5.29 |
| Cc1ccccc1-n1nc(Cn2nc(-c3ccc(Cl)cc3)n(C[C@H](O)C(F)(F)F)c2=O)nc1C(C)N (mixture of isomers) [Example 59, 2-({5-[1-Aminoethyl]-1-(2-methylphenyl)-1H-1,2,4-triazol-3-yl}methyl)-5-(4-chlorophenyl)-4-[(2S)-3,3,3-trifluoro-2-hydroxypropyl]-2,4-dihydro-3H-1,2,4-triazol-3-one trifluoroacetate] | 1.19 | 2.3 | 2.74 |
| CC(N)c1nc(Cn2nc(-c3ccc(Cl)cc3)n(C[C@H](O)C(F)(F)F)c2=O)nn1-c1ccccc1Cl (mixture of isomers) [Example 60, 2-({5-[1-Aminoethyl]-1-(2-chlorophenyl)-1H-1,2,4-triazol-3-yl}methyl)-5-(4-chlorophenyl)-4-[(2S)-3,3,3-trifluoro-2-hydroxypropyl]-2,4-dihydro-3H-1,2,4-triazol-3-one trifluoroacetate] | 0.74 | 4.3 | 3.17 |
| CC(=O)NC(C)c1nc(Cn2nc(-c3ccc(Cl)cc3)n(C[C@H](O)C(F)(F)F)c2=O)nn1-c1ccccc1Cl (mixture of isomers) [Example 64, N-{1-[1-(2-Chlorophenyl)-3-({3-(4-chlorophenyl)-5-oxo-4-[(2S)-3,3,3-trifluoro-2-hydroxypropyl]-4,5-dihydro-1H-1,2,4-triazol-1-yl}methyl)-1H-1,2,4-triazol-5-yl]ethyl}acetamide] | 1.8 | 9.8 | 17.7 |
| CC(NS(C)(=O)=O)c1nc(Cn2nc(-c3ccc(Cl)cc3)n(C[C@H](O)C(F)(F)F)c2=O)nn1-c1ccccc1Cl (mixture of isomers) [Example 67, N-{1-[1-(2-Chlorophenyl)-3-({3-(4-chlorophenyl)-5-oxo-4-[(2S)-3,3,3-trifluoro-2-hydroxypropyl]-4,5-dihydro-1H-1,2,4-triazol-1-yl}methyl)-1H-1,2,4-triazol-5-yl]ethyl}methanesulfonamide] | 0.83 | 2.9 | 2.43 |
| CN1C(=O)CCC1c1nc(Cn2nc(-c3ccc(Cl)cc3)n(C[C@H](O)C(F)(F)F)c2=O)nn1-c1ccccc1Cl (mixture of isomers) [Example 70, 5-(4-Chlorophenyl)-2-{[1-(2-chlorophenyl)-5-(1-methyl-5-oxopyrrolidin-2-yl)-1H-1,2,4-triazol-3-yl]methyl}-4-[(2S)-3,3,3-trifluoro-2-hydroxypropyl]-2,4-dihydro-3H-1,2,4-triazol-3-one] | 0.81 | 8.7 | 7.03 |
| CC(NC(=O)C(F)(F)F)c1nc(Cn2nc(-c3ccc(Cl)cc3)n(C[C@H](O)C(F)(F)F)c2=O)nn1-c1ccccc1Cl (mixture of isomers) [Example 73, N-{1-[1-(2-Chlorophenyl)-3-({3-(4-chlorophenyl)-5-oxo-4-[(2S)-3,3,3-trifluoro-2-hydroxypropyl]-4,5-dihydro-1H-1,2,4-triazol-1-yl}methyl)-1H-1,2,4-triazol-5-yl]ethyl}-2,2,2-trifluoroacetamide] | 1.56 | 5.5 | 8.6 |
| CC(C)(C)OCC(N)c1nc(Cn2nc(-c3ccc(Cl)cc3)n(C[C@H](O)C(F)(F)F)c2=O)nn1-c1ccccc1Cl (mixture of isomers) [Example 80, 2-({5-[1-Amino-2-tert-butoxyethyl]-1-(2-chlorophenyl)-1H-1,2,4-triazol-3-yl}methyl)-5-(4-chlorophenyl)-4-[(2S)-3,3,3-trifluoro-2-hydroxypropyl]-2,4-dihydro-3H-1,2,4-triazol-3-one] | 0.61 | 31.4 | 19 |
| NC(CO)c1nc(Cn2nc(-c3ccc(Cl)cc3)n(C[C@H](O)C(F)(F)F)c2=O)nn1-c1ccccc1Cl (mixture of isomers) [Example 81, 2-({5-[1-Amino-2-hydroxyethyl]-1-(2-chlorophenyl)-1H-1,2,4-triazol-3-yl}methyl)-5-(4-chlorophenyl)-4-[(2S)-3,3,3-trifluoro-2-hydroxypropyl]-2,4-dihydro-3H-1,2,4-triazol-3-one hydrochloride] | 1.25 | 6.4 | 7.95 |
| CC(C)(C)OCC(NS(C)(=O)=O)c1nc(Cn2nc(-c3ccc(Cl)cc3)n(C[C@H](O)C(F)(F)F)c2=O)nn1-c1ccccc1Cl (mixture of isomers) [Example 82, N-{2-tert-Butoxy-1-[1-(2-chlorophenyl)-3-({3-(4-chlorophenyl)-5-oxo-4-[(2S)-3,3,3-trifluoro-2-hydroxypropyl]-4,5-dihydro-1H-1,2,4-triazol-1-yl}methyl)-1H-1,2,4-triazol-5-yl]ethyl}methanesulfonamide] | 0.64 | 75.6 | 48 |
| CS(=O)(=O)NC(CO)c1nc(Cn2nc(-c3ccc(Cl)cc3)n(C[C@H](O)C(F)(F)F)c2=O)nn1-c1ccccc1Cl (mixture of isomers) [Example 85, N-{1-[1-(2-Chlorophenyl)-3-({3-(4-chlorophenyl)-5-oxo-4-[(2S)-3,3,3-trifluoro-2-hydroxypropyl]-4,5-dihydro-1H-1,2,4-triazol-1-yl}methyl)-1H-1,2,4-triazol-5-yl]-2-hydroxyethyl}-methanesulfonamide] | 0.35 | 6.4 | 2.25 |
| CC(=O)NC(COC(C)(C)C)c1nc(Cn2nc(-c3ccc(Cl)cc3)n(C[C@H](O)C(F)(F)F)c2=O)nn1-c1ccccc1Cl (mixture of isomers) [Example 88, N-{2-tert-Butoxy-1-[1-(2-chlorophenyl)-3-({3-(4-chlorophenyl)-5-oxo-4-[(2S)-3,3,3-trifluoro-2-hydroxypropyl]-4,5-dihydro-1H-1,2,4-triazol-1-yl}methyl)-1H-1,2,4-triazol-5-yl]ethyl}acetamide] | 1.5 | 30.3 | 45.5 |
| CC(=O)NC(CO)c1nc(Cn2nc(-c3ccc(Cl)cc3)n(C[C@H](O)C(F)(F)F)c2=O)nn1-c1ccccc1Cl (mixture of isomers) [Example 91, N-{1-[1-(2-Chlorophenyl)-3-({3-(4-chlorophenyl)-5-oxo-4-[(2S)-3,3,3-trifluoro-2-hydroxypropyl]-4,5-dihydro-1H-1,2,4-triazol-1-yl}methyl)-1H-1,2,4-triazol-5-yl]-2-hydroxyethyl}acetamide] | 0.71 | 12.5 | 8.9 |
| CC(C)(C)OCC(NC(=O)C(F)(F)F)c1nc(Cn2nc(-c3ccc(Cl)cc3)n(C[C@H](O)C(F)(F)F)c2=O)nn1-c1ccccc1Cl (mixture of isomers) [Example 94, N-{2-tert-Butoxy-1-[1-(2-chlorophenyl)-3-({3-(4-chlorophenyl)-5-oxo-4-[(2S)-3,3,3-trifluoro-2-hydroxypropyl]-4,5-dihydro-1H-1,2,4-triazol-1-yl}methyl)-1H-1,2,4-triazol-5-yl]ethyl}-2,2,2-trifluoroacetamide] | 1.1 | 25.0 | 27.5 |

From patent US20210253557A1, “SUBSTITUTED TRIAZOLE DERIVATIVES AND USES THEREOF” (Bayer Pharma Aktiengesellschaft, priority 2017, published 2021)
